According to patent publication US20250152473A1, “STABLE PLINABULIN FORMULATIONS AND METHODS OF THEIR PREPARATION AND USE” (BeyondSpring Pharmaceuticals, Inc., priority 2022, published 2025):

How the values were obtained:
[1] = Stress test of solid plinabulin, 30 days light storage vs dark control; type: physicochemical
Excerpt: This comparative example reports a plinabulin stress test of solid plinabulin showing relative stability to light storage for 30 days. […]

[2] = Light sensitivity study of solid plinabulin; type: physicochemical
Excerpt: Table 8 illustrates the stability of solid plinabulin in a light sensitivity study.

[3] = solid, minimum of 1.2 million LUX hours and 200 watts/square meter

With `CC(C)(C)c1[nH]cnc1/C=c1\[nH]c(=O)/c(=C/c2ccccc2)[nH]c1=O` [Plinabulin, (3Z,6Z)-3-Benzylidene-6-{[5-(2-methyl-2-propanyl)-1H-imidazol-4-yl]methylene}-2,5-piperazinedione] the “Alcohol Impurity by HPLC” value ([1]; Control Sample (dark), 0 days) was 0.02%, the “Amide Impurity by HPLC” value ([1]; Control Sample (dark), 0 days) was 0.02% and the Appearance ([1]; Control Sample (dark), 0 days) was “Yellow”. For the same molecule, the “Assay by HPLC” value ([1]; Control Sample (dark), 0 days) was 98.9% w/w, the “Cyano Impurity by HPLC” value ([1]; Control Sample (dark), 0 days) was 0.1% and the “De-Carboxylate Impurity by HPLC” value ([1]; Control Sample (dark), 0 days) was 0.1%. The “Ether Impurity by HPLC” value ([1]; Control Sample (dark), 0 days) was 0.02%, the “Impurity-489-1 by HPLC” value ([1]; Control Sample (dark), 0 days) was 0.1% and the “Impurity-489-2 by HPLC” value ([1]; Control Sample (dark), 0 days) was 0.1%. The “Other Unspecified Impurity by HPLC” value ([1]; Control Sample (dark), 0 days) was 0.02%, the “Total Impurities by HPLC” value ([1]; Control Sample (dark), 0 days) was 0.3% and the Water ([1]; Control Sample (dark), 0 days) was 0.1%. For the same molecule, the “Alcohol Impurity by HPLC” value ([1]; Control Sample (dark), 5 days) was 0.02%, the “Amide Impurity by HPLC” value ([1]; Control Sample (dark), 5 days) was 0.02% and the Appearance ([1]; Control Sample (dark), 5 days) was “Yellow”. For the same molecule, the “Assay by HPLC” value ([1]; Control Sample (dark), 5 days) was 98.42% w/w, the “Cyano Impurity by HPLC” value ([1]; Control Sample (dark), 5 days) was 0.11% and the “De-Carboxylate Impurity by HPLC” value ([1]; Control Sample (dark), 5 days) was 0.09%. The “Ether Impurity by HPLC” value ([1]; Control Sample (dark), 5 days) was 0.02%, the “Impurity-489-1 by HPLC” value ([1]; Control Sample (dark), 5 days) was 0.16% and the “Impurity-489-2 by HPLC” value ([1]; Control Sample (dark), 5 days) was 0.02%. For the same molecule, the “Other Unspecified Impurity by HPLC” value ([1]; Control Sample (dark), 5 days) was 0.02%, the “Total Impurities by HPLC” value ([1]; Control Sample (dark), 5 days) was 0.36% and the Water ([1]; Control Sample (dark), 5 days) was 0.05%. For the same molecule, the “Alcohol Impurity by HPLC” value ([1]; Control Sample (dark), 10 days) was 0.02%, the “Amide Impurity by HPLC” value ([1]; Control Sample (dark), 10 days) was 0.02% and the Appearance ([1]; Control Sample (dark), 10 days) was “Yellow”. The “Assay by HPLC” value ([1]; Control Sample (dark), 10 days) was 99.33% w/w, the “Cyano Impurity by HPLC” value ([1]; Control Sample (dark), 10 days) was 0.12% and the “De-Carboxylate Impurity by HPLC” value ([1]; Control Sample (dark), 10 days) was 0.09%. The “Ether Impurity by HPLC” value ([1]; Control Sample (dark), 10 days) was 0.02%, the “Impurity-489-1 by HPLC” value ([1]; Control Sample (dark), 10 days) was 0.12% and the “Impurity-489-2 by HPLC” value ([1]; Control Sample (dark), 10 days) was 0.02%. The “Other Unspecified Impurity by HPLC” value ([1]; Control Sample (dark), 10 days) was 0.02%, the “Total Impurities by HPLC” value ([1]; Control Sample (dark), 10 days) was 0.32% and the Water ([1]; Control Sample (dark), 10 days) was 0.05%. For the same molecule, the “Alcohol Impurity by HPLC” value ([1]; Control Sample (dark), 30 days) was 0.02%, the “Amide Impurity by HPLC” value ([1]; Control Sample (dark), 30 days) was 0.02% and the Appearance ([1]; Control Sample (dark), 30 days) was “Yellow”. For the same molecule, the “Assay by HPLC” value ([1]; Control Sample (dark), 30 days) was 99.29% w/w, the “Cyano Impurity by HPLC” value ([1]; Control Sample (dark), 30 days) was 0.11% and the “De-Carboxylate Impurity by HPLC” value ([1]; Control Sample (dark), 30 days) was 0.09%. The “Ether Impurity by HPLC” value ([1]; Control Sample (dark), 30 days) was 0.02%, the “Impurity-489-1 by HPLC” value ([1]; Control Sample (dark), 30 days) was 0.15% and the “Impurity-489-2 by HPLC” value ([1]; Control Sample (dark), 30 days) was 0.02%. For the same molecule, the “Other Unspecified Impurity by HPLC” value ([1]; Control Sample (dark), 30 days) was 0.05%, the “Total Impurities by HPLC” value ([1]; Control Sample (dark), 30 days) was 0.36% and the Water ([1]; Control Sample (dark), 30 days) was 0.05%. The “Alcohol Impurity by HPLC” value ([1]; Photo Sample, 0 days) was 0.02%, the “Amide Impurity by HPLC” value ([1]; Photo Sample, 0 days) was 0.02% and the “Assay by HPLC” value ([1]; Photo Sample, 0 days) was 98.9% w/w. For the same molecule, the “Cyano Impurity by HPLC” value ([1]; Photo Sample, 0 days) was 0.1%, the “De-Carboxylate Impurity by HPLC” value ([1]; Photo Sample, 0 days) was 0.1% and the “Ether Impurity by HPLC” value ([1]; Photo Sample, 0 days) was 0.02%. For the same molecule, the “Impurity-489-1 by HPLC” value ([1]; Photo Sample, 0 days) was 0.1%, the “Impurity-489-2 by HPLC” value ([1]; Photo Sample, 0 days) was 0.1% and the “Other Unspecified Impurity by HPLC” value ([1]; Photo Sample, 0 days) was 0.02%. The “Total Impurities by HPLC” value ([1]; Photo Sample, 0 days) was 0.3%, the Water ([1]; Photo Sample, 0 days) was 0.1% and the “Alcohol Impurity by HPLC” value ([1]; Photo Sample, 5 days) was 0.02%. For the same molecule, the “Amide Impurity by HPLC” value ([1]; Photo Sample, 5 days) was 0.02%, the “Assay by HPLC” value ([1]; Photo Sample, 5 days) was 99.37% w/w and the “Cyano Impurity by HPLC” value ([1]; Photo Sample, 5 days) was 0.11%. The “De-Carboxylate Impurity by HPLC” value ([1]; Photo Sample, 5 days) was 0.09%, the “Ether Impurity by HPLC” value ([1]; Photo Sample, 5 days) was 0.02% and the “Impurity-489-1 by HPLC” value ([1]; Photo Sample, 5 days) was 0.10%. The “Impurity-489-2 by HPLC” value ([1]; Photo Sample, 5 days) was 0.05%, the “Other Unspecified Impurity by HPLC” value ([1]; Photo Sample, 5 days) was 0.02% and the “Total Impurities by HPLC” value ([1]; Photo Sample, 5 days) was 0.3%. For the same molecule, the Water ([1]; Photo Sample, 5 days) was 0.05%, the “Alcohol Impurity by HPLC” value ([1]; Photo Sample, 10 days) was 0.02% and the “Amide Impurity by HPLC” value ([1]; Photo Sample, 10 days) was 0.02%. The “Assay by HPLC” value ([1]; Photo Sample, 10 days) was 99.36% w/w, the “Cyano Impurity by HPLC” value ([1]; Photo Sample, 10 days) was 0.12% and the “De-Carboxylate Impurity by HPLC” value ([1]; Photo Sample, 10 days) was 0.08%. The “Ether Impurity by HPLC” value ([1]; Photo Sample, 10 days) was 0.02%, the “Impurity-489-1 by HPLC” value ([1]; Photo Sample, 10 days) was 0.07% and the “Impurity-489-2 by HPLC” value ([1]; Photo Sample, 10 days) was 0.05%. The “Other Unspecified Impurity by HPLC” value ([1]; Photo Sample, 10 days) was 0.02%, the “Total Impurities by HPLC” value ([1]; Photo Sample, 10 days) was 0.27% and the Water ([1]; Photo Sample, 10 days) was 0.05%. The “Alcohol Impurity by HPLC” value ([1]; Photo Sample, 30 days) was 0.02%, the “Amide Impurity by HPLC” value ([1]; Photo Sample, 30 days) was 0.02% and the “Assay by HPLC” value ([1]; Photo Sample, 30 days) was 99.17% w/w. The “Cyano Impurity by HPLC” value ([1]; Photo Sample, 30 days) was 0.11%, the “De-Carboxylate Impurity by HPLC” value ([1]; Photo Sample, 30 days) was 0.09% and the “Ether Impurity by HPLC” value ([1]; Photo Sample, 30 days) was 0.02%. For the same molecule, the “Impurity-489-1 by HPLC” value ([1]; Photo Sample, 30 days) was 0.06%, the “Impurity-489-2 by HPLC” value ([1]; Photo Sample, 30 days) was 0.05% and the “Other Unspecified Impurity by HPLC” value ([1]; Photo Sample, 30 days) was 0.1%. The “Total Impurities by HPLC” value ([1]; Photo Sample, 30 days) was 0.6%, the Water ([1]; Photo Sample, 30 days) was 0.05% and the Light sensitivity ([2]; solid plinabulin) was “not light sensitive”. The Appearance ([2]; solid, Dark Control) was “Yellow Solid”, the “HPLC (% AUC) at 214 nm” value ([2]; solid, Dark Control) was 99.3% AUC and the “HPLC (% AUC) at 250 nm” value ([2]; solid, Dark Control) was 99.5% AUC. The “HPLC (% AUC) at 370 nm” value ([2]; solid, Dark Control) was 99.4% AUC, the “Impurity at 214 nm, rrt 0.86” value ([2]; solid, Dark Control) was 0.21% @rrt 0.86 and the “Impurity at 214 nm, rrt 0.97” value ([2]; solid, Dark Control) was 0.33% @rrt 0.97. For the same molecule, the “Impurity at 214 nm, rrt 1.17” value ([2]; solid, Dark Control) was 0.06% @rrt 1.17, the “Impurity at 214 nm, rrt 1.27” value ([2]; solid, Dark Control) was 0.04% @rrt 1.27 and the KF ([2]; solid, Dark Control) was 5.1%. The “Single impurity >1% AUC at 214 nm” value ([2]; solid, Dark Control) was “No single impurity”, the Appearance ([2]; solid, Time 0) was “Yellow Solid” and the “HPLC (% AUC) at 214 nm” value ([2]; solid, Time 0) was 99.2% AUC. The “HPLC (% AUC) at 250 nm” value ([2]; solid, Time 0) was 99.4% AUC, the “HPLC (% AUC) at 370 nm” value ([2]; solid, Time 0) was 99.4% AUC and the “Impurity at 214 nm, rrt 0.86” value ([2]; solid, Time 0) was 0.21% @rrt 0.86. For the same molecule, the “Impurity at 214 nm, rrt 0.96” value ([2]; solid, Time 0) was 0.36% @rrt 0.96, the “Impurity at 214 nm, rrt 1.14” value ([2]; solid, Time 0) was 0.06% @rrt 1.14 and the “Impurity at 214 nm, rrt 1.18” value ([2]; solid, Time 0) was 0.05% @rrt 1.18. The “Impurity at 214 nm, rrt 1.19” value ([2]; solid, Time 0) was 0.02% @rrt 1.19, the “Impurity at 214 nm, rrt 1.28” value ([2]; solid, Time 0) was 0.02% @rrt 1.28 and the KF ([2]; solid, Time 0) was 5.1%. The “Single impurity >1% AUC at 214 nm” value ([2]; solid, Time 0) was “No single impurity”, the Appearance [2, 3] was “Yellow Solid” and the “HPLC (% AUC) at 214 nm” value [2, 3] was 99.4% AUC. For the same molecule, the “HPLC (% AUC) at 250 nm” value [2, 3] was 99.4% AUC, the “HPLC (% AUC) at 370 nm” value [2, 3] was 99.5% AUC and the “Impurity at 214 nm, rrt 0.40” value [2, 3] was 0.02% @rrt 0.40. For the same molecule, the “Impurity at 214 nm, rrt 0.49” value [2, 3] was 0.05% @rrt 0.49, the “Impurity at 214 nm, rrt 0.68” value [2, 3] was 0.02% @rrt 0.68 and the “Impurity at 214 nm, rrt 0.86” value [2, 3] was 0.08% @rrt 0.86. For the same molecule, the “Impurity at 214 nm, rrt 0.97” value [2, 3] was 0.29% @rrt 0.97, the “Impurity at 214 nm, rrt 1.17” value [2, 3] was 0.05% @rrt 1.17 and the “Impurity at 214 nm, rrt 1.27” value [2, 3] was 0.02% @rrt 1.27. For the same molecule, the KF [2, 3] was 5.0% and the “Single impurity >1% AUC at 214 nm” value [2, 3] was “No single impurity”.
